Assay results from paper PMC12593154, “Overcoming Solubility Challenges: Micronization of Berberine Using the GAS Antisolvent Technique” (ACS Omega, 2025).

Legend:
[1] = Solubility analysis of berberine in organic solvents (excess compound, 24 h agitation, spectrophotometer); format: physicochemical; details: organic solvent or mixture, thermodynamic from solid
Description: The solubility study of the compound in different solvents was carried out. Acetone, ethanol, methanol, 1-propanol, 1-butanol, and dichloromethane were used. An excess compound was added to 100 mL of solvent at 25 and 35 °C. The solution was agitated at 100 rpm for 24 h to achieve solid–liquid equilibrium. It was then left for 2 h without stirring to allow the sedimentation of the insolubilized particles. An aliquot was taken and analyzed with a spectrophotometer.

[2] = Particle size by scanning electron microscopy (length and width of 200 particles); format: physicochemical; details: SEM, GAS at 35 °C, 80 bar
Description: Berberine was micronized using the antisolvent gas technique based on the studies of Pessoa et al. (2019) and Sakata et al. (2021). First, the solution was prepared at 1 mg/mL with the selected solvents and then added to the cell. The CO2 was introduced into the cell at a flow rate of 10 and 20 mL/min until the pressure reached 80 bar, with an operating temperature of 35 °C. The mixture was held at 80 bar for 10 min for homogenization. The solvent was removed by passing CO2 at constant pressure with open inlet and outlet valves. Once all the solvent had been removed, the reaction cell was depressurized, and the particles were collected.
Morphology and particle size were examined by scanning electron microscopy (JEOL JSM-6390LV.). Length and width measurements of 200 particles were obtained for each sample using Size Meter Software (version 1.1).

[3] = listed as Nonmicronized berberine

solubility at 24 h ([1]; 1-butanol, 25 °C): 5.4 ± 0.578 µg/mL | solubility at 24 h ([1]; 1-propanol, 25 °C): 3 ± 0.168 µg/mL | solubility at 24 h ([1]; 1-propanol, 35 °C): 4.33 ± 0.082 µg/mL | solubility at 24 h ([1]; acetone, 25 °C): 0.16 ± 0.004 µg/mL | solubility at 24 h ([1]; acetone, 35 °C): 0.2 ± 0.007 µg/mL | solubility at 24 h ([1]; dichloromethane, 25 °C): 1.27 ± 0.032 µg/mL | solubility at 24 h ([1]; dichloromethane, 35 °C): 3.47 ± 0.091 µg/mL | solubility at 24 h ([1]; ethanol, 25 °C): 2.82 ± 0.086 µg/mL | solubility at 24 h ([1]; ethanol, 35 °C): 4.57 ± 0.254 µg/mL | solubility at 24 h ([1]; methanol, 25 °C): 15.4 ± 1.61 µg/mL | solubility at 24 h ([1]; methanol, 35 °C): 35 ± 1.98 µg/mL | particle size, length [2, 3]: 13.24 μm | particle size, width [2, 3]: 6.39 μm | particle size, length ([2]; listed as Raw): 13.24 ± 8.66 μm | particle size, width ([2]; listed as Raw): 6.39 ± 5.39 μm
SMILES: COc1ccc2cc3[n+](cc2c1OC)CCc1cc2c(cc1-3)OCO2 [Berberine, Berberine chloride]
